Results published in ChEMBL document CHEMBL4265948, “A cardiac glycoside HTF-1 isolated from Helleborus thibetanus Franch displays potent in vitro anti-cancer activity via caspase-9, MAPK and PI3K-Akt-mTOR pathways” (Eur J Med Chem, 2018).
Activity calls are given as the source filed them. The rule behind the calls is not given here.

Tests used:
HeLa [1] = test: Down regulation of survivin expression in human HeLa cells at 50 to 200 nM after 24 hrs by Western blot analysis; type: functional, cell-based
HeLa [2] = test: Induction of apoptosis in human HeLa cells assessed as late apoptotic cells at 200 nM after 24 hrs by Annexin-V-FITC/propidium iodide staining based flow cytometry (reference value: 11.1%); type: functional
HeLa [3] = test: Down regulation of FEN1 expression in human HeLa cells at 50 to 200 nM after 24 hrs by Western blot analysis; type: functional, cell-based
HeLa [4] = test: Induction of apoptosis in human HeLa cells assessed as necrotic cells at 500 nM after 24 hrs by Annexin-V-FITC/propidium iodide staining based flow cytometry (reference value: 0.031%); type: functional
HeLa [5] = test: Induction of apoptosis in human HeLa cells assessed as necrotic cells at 100 nM after 24 hrs by Annexin-V-FITC/propidium iodide staining based flow cytometry (reference value: 0.031%); type: functional
HeLa [6] = test: Antiinvasive activity in human HeLa cells at 50 nM after 48 hrs by crystal violet staining based microscopic analysis; type: functional, cell-based
HeLa [7] = test: Antiproliferative activity against human HeLa cells assessed as inhibition of cell proliferation at 100 to 200 nM after 24 hrs by Ki-67/Hoechst 33342 staining based fluorescence microscopic analysis; type: functional
HeLa [8] = test: Induction of apoptosis in human HeLa cells assessed as cleaved caspase-9 expression at 50 to 200 nM after 24 hrs by Western blot analysis; type: functional, cell-based
HeLa [9] = test: Induction of apoptosis in human HeLa cells assessed as cleaved caspase-7 expression at 50 to 200 nM after 24 hrs by Western blot analysis; type: functional, cell-based
HeLa [10] = test: Induction of morphological changes in human HeLa cells assessed as chromatin condensation at 200 to 500 nM after 24 hrs by Hoechst 33342 staining based fluorescence microscopic analysis; type: functional, cell-based
[11] = biological target: c-Jun N-terminal kinase, JNK (Homo sapiens) (UniProt P45983+P53779+P45984); test: Activation of JNK phosphorylation in human HeLa cells after 24 hrs by Western blot analysis; type: cell-based
HeLa [12] = test: Induction of apoptosis in human HeLa cells assessed as […] in cleaved PARP expression at 50 to 200 nM after 24 hrs by Western blot analysis; type: functional, cell-based
HeLa [13] = test: Induction of morphological changes in human HeLa cells assessed as cell membrane blebbing at 200 to 500 nM after 24 hrs by scanning electron microscopic analysis; type: functional, cell-based
[14] = biological target: Ribosomal protein S6 kinase (Homo sapiens) (UniProt P51812+Q9UBS0+O75676+Q15349+O75582+P23443+Q9UK32+Q15418); test: Inhibition of p70S6K phosphorylation in human HeLa cells after 24 hrs by Western blot analysis; type: cell-based
HeLa [15] = test: Cell cycle arrest in human HeLa cells assessed as accumulation at S phase at 100 nM after 24 hrs by propidium iodide staining based flow cytometry; type: functional
L02 = test: Cytotoxicity activity against human LO2 cells after 24 to 48 hrs by MTT assay; type: cell-based
HeLa [16] = test: Antimigratory activity in human HeLa cells at 25 to 50 nM after 24 to 48 hrs by wound healing assay; type: functional, cell-based
HeLa [17] = test: Induction of apoptosis in human HeLa cells assessed as viable cells at 100 nM after 24 hrs by Annexin-V-FITC/propidium iodide staining based flow cytometry (reference value: 85.8%); type: functional; conditions: read-out: Activity
HeLa [18] = test: Inhibition of colony formation in human HeLa cells at 50 nM after 24 hrs by crystal violet staining based microscopic analysis; type: functional, cell-based
HeLa [19] = test: Induction of apoptosis in human HeLa cells assessed as viable cells at 200 nM after 24 hrs by Annexin-V-FITC/propidium iodide staining based flow cytometry (reference value: 85.8%); type: functional; conditions: read-out: Activity
HeLa [20] = test: Induction of morphological changes in human HeLa cells assessed as thinner microvilli at 200 to 500 nM after 24 hrs by scanning electron microscopic analysis; type: functional, cell-based
HeLa [21] = test: Induction of morphological changes in human HeLa cells assessed as impaired cell adhesion at 200 to 500 nM after 24 hrs by bright field microscopic analysis; type: functional, cell-based
[22] = biological target: MAP kinase p38 (Homo sapiens) (UniProt O15264+Q15759+Q16539+P53778); test: Effect on p38 phosphorylation in human HeLa cells at 50 to 200 nM after 24 hrs by Western blot analysis; type: cell-based
HeLa [23] = test: Induction of morphological changes in human HeLa cells assessed as protrusions in cell membrane at 200 to 500 nM after 24 hrs by scanning electron microscopic analysis; type: functional, cell-based
HeLa [24] = test: Inhibition of colony formation in human HeLa cells assessed as reduction in colony size at 50 nM after 24 hrs by crystal violet staining based microscopic analysis; type: functional, cell-based
HeLa [25] = test: Induction of morphological changes in human HeLa cells assessed as formation of apoptotic bodies at 200 to 500 nM after 24 hrs by scanning electron microscopic analysis; type: functional, cell-based
MCF7 [26] = test: Cytotoxicity activity against human MCF7 cells after 24 hrs by MTT assay; type: functional, cell-based; conditions: MCF7, 24 h
HepG2 [27] = test: Cytotoxicity activity against human HepG2 cells after 24 hrs by MTT assay; type: functional, cell-based; conditions: HepG2, 24 h
HeLa [28] = test: Cell cycle arrest in human HeLa cells assessed as accumulation at sub-G1 phase at 200 nM after 24 hrs by propidium iodide staining based flow cytometry; type: functional
HeLa [29] = test: Induction of morphological changes in human HeLa cells assessed as cell shrinkage at 200 to 500 nM after 24 hrs by bright field microscopic analysis; type: functional, cell-based
[30] = biological target: RAC-alpha serine/threonine-protein kinase (Homo sapiens) (UniProt P31749); test: Inhibition of AKT phosphorylation in human HeLa cells after 24 hrs by Western blot analysis; type: cell-based
Sequence of RAC-alpha serine/threonine-protein kinase (Homo sapiens) (P31749 whole entry): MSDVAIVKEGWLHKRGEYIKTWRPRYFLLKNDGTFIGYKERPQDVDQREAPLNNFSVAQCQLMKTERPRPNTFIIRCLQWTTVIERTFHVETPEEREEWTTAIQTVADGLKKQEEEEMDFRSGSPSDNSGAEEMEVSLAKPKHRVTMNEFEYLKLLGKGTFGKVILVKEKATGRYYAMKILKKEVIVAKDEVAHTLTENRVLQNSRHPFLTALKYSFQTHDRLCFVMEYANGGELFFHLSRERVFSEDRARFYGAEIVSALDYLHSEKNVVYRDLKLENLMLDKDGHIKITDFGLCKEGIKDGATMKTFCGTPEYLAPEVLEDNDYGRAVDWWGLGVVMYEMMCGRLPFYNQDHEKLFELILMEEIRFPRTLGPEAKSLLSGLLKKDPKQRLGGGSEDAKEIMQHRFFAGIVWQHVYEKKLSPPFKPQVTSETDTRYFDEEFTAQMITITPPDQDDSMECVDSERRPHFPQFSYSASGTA

HeLa [31] = test: Induction of apoptosis in human HeLa cells assessed as late apoptotic cells at 100 nM after 24 hrs by Annexin-V-FITC/propidium iodide staining based flow cytometry (reference value: 11.1%); type: functional
HeLa [32] = test: Induction of morphological changes in human HeLa cells assessed as wizened nucleus at 200 to 500 nM after 24 hrs by Hoechst 33342 staining based fluorescence microscopic analysis; type: functional, cell-based
HeLa [33] = test: Induction of morphological changes in human HeLa cells assessed as cell shrinkage at 200 to 500 nM after 24 hrs by scanning electron microscopic analysis; type: functional, cell-based
HeLa [34] = test: Induction of double strand breaks in human HeLa cells assessed as increase in phospho-gammaH2AX expression at 50 to 200 nM after 24 hrs by Western blot analysis; type: functional, cell-based
MCF7 [35] = test: Cytotoxicity activity against human MCF7 cells after 48 hrs by MTT assay; type: functional, cell-based; conditions: MCF7, 48 h
HeLa [36] = test: Cytotoxicity activity against human HeLa cells after 48 hrs by MTT assay; type: functional, cell-based
HeLa [37] = test: Induction of apoptosis in human HeLa cells assessed as early apoptotic cells at 500 nM after 24 hrs by Annexin-V-FITC/propidium iodide staining based flow cytometry (reference value: 3.08%); type: functional
HeLa [38] = test: Induction of apoptosis in human HeLa cells assessed as early apoptotic cells at 200 nM after 24 hrs by Annexin-V-FITC/propidium iodide staining based flow cytometry (reference value: 3.08%); type: functional
HeLa [39] = test: Induction of apoptosis in human HeLa cells assessed as early apoptotic cells at 100 nM after 24 hrs by Annexin-V-FITC/propidium iodide staining based flow cytometry (reference value: 3.08%); type: functional
HeLa [40] = test: Induction of apoptosis in human HeLa cells assessed as necrotic cells at 200 nM after 24 hrs by Annexin-V-FITC/propidium iodide staining based flow cytometry (reference value: 0.031%); type: functional
HeLa [41] = test: Down regulation of Bcl2 expression in human HeLa cells at 50 to 200 nM after 24 hrs by Western blot analysis; type: functional, cell-based
HeLa [42] = test: Cytotoxicity activity against human HeLa cells after 24 hrs by MTT assay; type: functional, cell-based
HepG2 [43] = test: Cytotoxicity activity against human HepG2 cells after 48 hrs by MTT assay; type: functional, cell-based; conditions: HepG2, 48 h
[44] = biological target: Serine/threonine-protein kinase mTOR (Homo sapiens) (UniProt P42345); test: Inhibition of mTOR phosphorylation in human HeLa cells after 24 hrs by Western blot analysis; type: cell-based
HeLa [45] = test: Induction of apoptosis in human HeLa cells assessed as viable cells at 500 nM after 24 hrs by Annexin-V-FITC/propidium iodide staining based flow cytometry (reference value: 85.8%); type: functional; conditions: read-out: Activity
HeLa [46] = test: Induction of morphological changes in human HeLa cells assessed as DNA fragmentation at 200 to 500 nM after 24 hrs by Hoechst 33342 staining based fluorescence microscopic analysis; type: functional, cell-based
HeLa [47] = test: Induction of apoptosis in human HeLa cells assessed as late apoptotic cells at 500 nM after 24 hrs by Annexin-V-FITC/propidium iodide staining based flow cytometry (reference value: 11.1%); type: functional
HeLa [48] = test: Induction of apoptosis in human HeLa cells assessed as cleaved caspase-3 expression at 50 to 200 nM after 24 hrs by Western blot analysis; type: functional, cell-based
HeLa [49] = test: Antiproliferative activity against human HeLa cells assessed as inhibition of cell proliferation at 100 to 200 nM after 24 hrs by Edu/Hoechst 33342 staining based fluorescence microscopic analysis; type: functional
HeLa [50] = test: Induction of morphological changes in human HeLa cells assessed as increase in floating round cells at 200 to 500 nM after 24 hrs by bright field microscopic analysis; type: functional, cell-based
HeLa [51] = test: Cell cycle arrest in human HeLa cells assessed as accumulation at S phase at 200 nM after 24 hrs by propidium iodide staining based flow cytometry relative to control; type: functional
HeLa [52] = test: Inhibition of PI3K phosphorylation in human HeLa cells after 24 hrs by Western blot analysis; type: cell-based
[53] = biological target: Mitogen-activated protein kinase; ERK1/ERK2 (Homo sapiens) (UniProt P27361+P28482); test: Inhibition of ERK1/2 phosphorylation in human HeLa cells at 50 to 200 nM after 24 hrs by Western blot analysis; type: cell-based
Sequence of Mitogen-activated protein kinase; ERK1/ERK2 (Homo sapiens) (P27361 whole entry, looked up): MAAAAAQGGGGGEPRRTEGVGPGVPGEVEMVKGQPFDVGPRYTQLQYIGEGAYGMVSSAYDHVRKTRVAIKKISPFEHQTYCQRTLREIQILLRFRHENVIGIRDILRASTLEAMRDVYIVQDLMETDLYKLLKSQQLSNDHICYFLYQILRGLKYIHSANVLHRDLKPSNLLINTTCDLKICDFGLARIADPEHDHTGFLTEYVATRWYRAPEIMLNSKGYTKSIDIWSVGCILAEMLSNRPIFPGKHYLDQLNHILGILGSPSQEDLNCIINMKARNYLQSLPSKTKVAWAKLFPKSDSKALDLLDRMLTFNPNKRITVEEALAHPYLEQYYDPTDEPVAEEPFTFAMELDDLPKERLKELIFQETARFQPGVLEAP
Sequence of Mitogen-activated protein kinase; ERK1/ERK2 (Homo sapiens) (P28482 whole entry, looked up): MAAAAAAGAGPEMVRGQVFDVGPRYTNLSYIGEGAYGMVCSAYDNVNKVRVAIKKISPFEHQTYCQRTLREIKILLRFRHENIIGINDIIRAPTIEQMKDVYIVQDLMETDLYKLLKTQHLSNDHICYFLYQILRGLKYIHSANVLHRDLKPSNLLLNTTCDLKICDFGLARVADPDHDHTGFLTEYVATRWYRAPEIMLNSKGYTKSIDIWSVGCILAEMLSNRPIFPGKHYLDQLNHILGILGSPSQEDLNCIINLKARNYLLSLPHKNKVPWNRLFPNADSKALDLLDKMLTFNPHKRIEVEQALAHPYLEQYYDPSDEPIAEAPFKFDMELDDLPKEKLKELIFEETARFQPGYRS

For `C[C@]12CC[C@H](O[C@@H]3C[C@H](CO)[C@@H](O)[C@H](O)[C@H]3O)C[C@@H]1CC[C@@H]1[C@@H]2CC[C@]2(C)[C@@H](c3ccc(=O)oc3)[C@@H](O)C[C@]12O`, the Activity (HeLa [1]) was “Active”, the Activity (HeLa [2]) was 8.67% and the Activity (HeLa [3]) was “Active”. The Activity (HeLa [4]) was 0.56%, the Activity (HeLa [5]) was 0.062% and the Activity (HeLa [6]) was “Active”. For the same compound, the inhibition (HeLa [7]) was “Active”, the Activity (HeLa [8]) was “Active” and the Activity (HeLa [9]) was “Active”. The Activity (HeLa [10]) was “Active”, the Activity [11] was “Active” and the Activity (HeLa [12]) was “Active”. For the same compound, the Activity (HeLa [13]) was “Active”, the inhibition [14] was “Dose-dependent effect” and the Activity (HeLa [15]) was “Active”. The Activity (L02) was “Non-Toxic”, the Activity (HeLa [16]) was “Active” and the viability at 0.1 µM (HeLa [17]) was 82.5%. For the same compound, the inhibition (HeLa [18]) was “Active”, the viability at 0.2 µM (HeLa [19]) was 52.9% and the Activity (HeLa [20]) was “Active”. For the same compound, the Activity (HeLa [21]) was “Active”, the Activity [22] was “inactive” and the Activity (HeLa [23]) was “Active”. For the same compound, the inhibition (HeLa [24]) was “Active”, the Activity (HeLa [25]) was “Active” and the IC50 (MCF7 [26]) was 1020 nM. The IC50 (HepG2 [27]) was 1410 nM, the Activity (HeLa [28]) was “Active” and the Activity (HeLa [29]) was “Active”. The inhibition [30] was “Dose-dependent effect”, the Activity (HeLa [31]) was 7.28% and the Activity (HeLa [32]) was “Active”. The Activity (HeLa [33]) was “Active”, the Activity (HeLa [34]) was “Active” and the IC50 (MCF7 [35]) was 239 nM. The IC50 (HeLa [36]) was 158 nM, the Activity (HeLa [37]) was 36% and the Activity (HeLa [38]) was 38.3%. The Activity (HeLa [39]) was 10.2%, the Activity (HeLa [40]) was 0.1% and the Activity (HeLa [41]) was “Active”. For the same compound, the IC50 (HeLa [42]) was 546 nM, the IC50 (HepG2 [43]) was 221 nM and the inhibition [44] was “Dose-dependent effect”. For the same compound, the viability at 0.5 µM (HeLa [45]) was 46.9%, the Activity (HeLa [46]) was “Active” and the Activity (HeLa [47]) was 16.6%. For the same compound, the Activity (HeLa [48]) was “Active”, the inhibition (HeLa [49]) was “Active” and the Activity (HeLa [50]) was “Active”. For the same compound, the Activity (HeLa [51]) was 73%, the inhibition (HeLa [52]) was “Dose-dependent effect” and the inhibition [53] was “Active”.
